Measurements as given in ChEMBL document CHEMBL1201862, “PubChem BioAssay data set” (2004).
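Briefly, cells in 96-well plates were exposed to five compound concentrations for 48 h, and endpoints were estimated by linear interpolation. Abbreviation: GI50, concentration required for 50% inhibition of growth.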 The source made the active and inactive calls. Cut-off read from the data, not from the text of the source: active = GI50 up to about 1.1 µM and inactive = higher.

What was measured:
Experiment in all cases: growth of human tumour cells (NCI), 48 h
786-0 = test system: 786-0
A549 = test system: A549
ACHN = test system: ACHN
CAKI-1 = test system: CAKI-1
DU-145 = test system: DU-145
HCT-116 = test system: HCT-116
HT-29 = test system: HT-29
KM12 = test system: KM12
MDA-MB-435 = test system: MDA-MB-435
Malme-3M = test system: Malme-3M
OVCAR-3 = test system: OVCAR-3
OVCAR-4 = test system: OVCAR-4
OVCAR-5 = test system: OVCAR-5
RXF 393 = test system: RXF 393
SF-268 = test system: SF-268
SF-295 = test system: SF-295
SK-MEL-5 = test system: SK-MEL-5
SNB-75 = test system: SNB-75
T47D = test system: T47D
UACC-62 = test system: UACC-62

SMILES	GI50 (786-0)	GI50 (A549)	GI50 (ACHN)	GI50 (CAKI-1)	GI50 (DU-145)	GI50 (HCT-116)	GI50 (HT-29)	GI50 (KM12)	GI50 (MDA-MB-435)	GI50 (Malme-3M)	GI50 (OVCAR-3)	GI50 (OVCAR-4)	GI50 (OVCAR-5)	GI50 (RXF 393)	GI50 (SF-268)	GI50 (SF-295)	GI50 (SK-MEL-5)	GI50 (SNB-75)	GI50 (T47D)	GI50 (UACC-62)
CC(=O)CC1(O)C(=O)c2c(Br)sc(Br)c2C1=O	23.7 µM (inactive)	58.1 µM (inactive)	34.3 µM (inactive)	17.3 µM (inactive)	42.8 µM (inactive)	19.8 µM (inactive)	21.7 µM (inactive)	34.3 µM (inactive)	20 µM (inactive)	18.1 µM (inactive)	16.9 µM (inactive)	18.6 µM (inactive)	17.6 µM (inactive)	24.7 µM (inactive)	30.2 µM (inactive)	> 100 µM (inactive)	18.4 µM (inactive)	59.7 µM (inactive)	30.9 µM (inactive)	21 µM (inactive)
C/C(=N/NC(=S)Nc1ccc(C)cc1)c1ccccn1	0.0427 µM (active)	0.5 µM (active)	0.0515 µM (active)	0.0968 µM (active)	0.794 µM (active)	< 0.0146 µM (active)	< 0.0366 µM (active)	0.122 µM (active)	1.07 µM (active)	0.505 µM (active)	0.0179 µM (active)	1.47 µM (inactive)	0.0493 µM (active)	0.78 µM (active)	0.114 µM (active)	0.193 µM (active)	0.12 µM (active)	1.26 µM (inactive)	0.049 µM (active)	0.105 µM (active)
O=S(=O)(Nc1nc2ccccc2nc1N1CCCCCC1)c1ccccc1	> 100 µM (inactive)	24.7 µM (inactive)	21.1 µM (inactive)	> 100 µM (inactive)	> 100 µM (inactive)	> 100 µM (inactive)	27.6 µM (inactive)	15.8 µM (inactive)	23 µM (inactive)	25.4 µM (inactive)	17.1 µM (inactive)	4.05 µM (inactive)	57.3 µM (inactive)	19.1 µM (inactive)	37.7 µM (inactive)	24.1 µM (inactive)	14.3 µM (inactive)	21 µM (inactive)	> 100 µM (inactive)	18.4 µM (inactive)
CC(C)C1CC(CO)(CNc2nc(N)nc(Cl)c2C=O)C1 (centres undefined)	31.3 µM (inactive)	12.9 µM (inactive)	5.35 µM (inactive)	2.17 µM (inactive)	14.6 µM (inactive)	2.84 µM (inactive)	2.48 µM (inactive)	7.35 µM (inactive)	2.23 µM (inactive)	11.1 µM (inactive)	3.47 µM (inactive)	4.81 µM (inactive)	17.1 µM (inactive)	7.93 µM (inactive)	4.79 µM (inactive)	16.6 µM (inactive)	6.89 µM (inactive)	7.87 µM (inactive)	6.01 µM (inactive)	2 µM (inactive)
CC(C)N/C(=N\C#N)NS(=O)(=O)c1cnccc1NC1CCCCCCC1	> 100 µM (inactive)	> 100 µM (inactive)	> 100 µM (inactive)	> 100 µM (inactive)	> 100 µM (inactive)	> 100 µM (inactive)	> 100 µM (inactive)	> 100 µM (inactive)	> 100 µM (inactive)	> 100 µM (inactive)	> 100 µM (inactive)	> 100 µM (inactive)	> 100 µM (inactive)	> 100 µM (inactive)	> 100 µM (inactive)	> 100 µM (inactive)	> 100 µM (inactive)	> 100 µM (inactive)	> 100 µM (inactive)	> 100 µM (inactive)
c1cc2nnc1SCCSCCSc1ccc(nn1)SCCSCCS2	> 100 µM (inactive)	> 100 µM (inactive)	> 100 µM (inactive)	> 100 µM (inactive)	> 100 µM (inactive)	> 100 µM (inactive)	> 100 µM (inactive)	> 100 µM (inactive)	> 100 µM (inactive)	> 100 µM (inactive)	> 100 µM (inactive)	> 100 µM (inactive)	> 100 µM (inactive)	> 100 µM (inactive)	> 100 µM (inactive)	> 100 µM (inactive)	> 100 µM (inactive)	18.5 µM (inactive)	> 100 µM (inactive)	> 100 µM (inactive)
CC(C)(C)c1cc(C2=NNC(c3ccccc3)C2)cc(C(C)(C)C)c1O (centres undefined)	14.3 µM (inactive)	15.3 µM (inactive)	16.3 µM (inactive)	12.9 µM (inactive)	15.5 µM (inactive)	14.2 µM (inactive)	17.7 µM (inactive)	13.6 µM (inactive)	12.8 µM (inactive)	17.9 µM (inactive)	3.88 µM (inactive)	14.2 µM (inactive)	21.1 µM (inactive)	10.1 µM (inactive)	17 µM (inactive)	16.5 µM (inactive)	11 µM (inactive)	10.3 µM (inactive)	10.2 µM (inactive)	13.5 µM (inactive)
O=S(=O)(O)c1ccc(/N=N/c2ccc(/N=N/c3c(O)ccc4ccccc34)cc2)cc1	> 100 µM (inactive)	> 100 µM (inactive)	> 100 µM (inactive)	> 100 µM (inactive)	> 89.3 µM (inactive)	> 100 µM (inactive)	> 100 µM (inactive)	98.6 µM (inactive)	> 100 µM (inactive)	35.6 µM (inactive)	> 100 µM (inactive)	> 100 µM (inactive)	> 100 µM (inactive)	> 100 µM (inactive)	> 100 µM (inactive)	> 100 µM (inactive)	> 91.8 µM (inactive)	> 100 µM (inactive)	97.9 µM (inactive)	> 100 µM (inactive)
Nc1nc(-c2ccccc2)c(-c2ccccc2)c(-c2nc(N)nc(-c3ccccc3)c2-c2ccccc2)n1	> 100 µM (inactive)	> 100 µM (inactive)	> 100 µM (inactive)	> 100 µM (inactive)	> 100 µM (inactive)	> 100 µM (inactive)	62.1 µM (inactive)	> 100 µM (inactive)	> 100 µM (inactive)	> 100 µM (inactive)	83.2 µM (inactive)	91 µM (inactive)	> 100 µM (inactive)	94 µM (inactive)	> 100 µM (inactive)	78.9 µM (inactive)	> 100 µM (inactive)	88.7 µM (inactive)	49.7 µM (inactive)	85.3 µM (inactive)
NC(=S)NN=Cc1ccccc1OCc1cccc(COc2ccccc2C=NNC(N)=S)n1	12.4 µM (inactive)	> 100 µM (inactive)	20.6 µM (inactive)	> 100 µM (inactive)	13.7 µM (inactive)	32.7 µM (inactive)	> 100 µM (inactive)	> 100 µM (inactive)	> 100 µM (inactive)	> 54.3 µM (inactive)	42.1 µM (inactive)	> 100 µM (inactive)	29.9 µM (inactive)	2.4 µM (inactive)	5.46 µM (inactive)	6.85 µM (inactive)	> 100 µM (inactive)	1.78 µM (inactive)	> 38.2 µM (inactive)	19.3 µM (inactive)
CC(=O)C(C)CCOC1(C)OCCC1C (centres undefined)	> 100 µM (inactive)	> 100 µM (inactive)	> 100 µM (inactive)	> 100 µM (inactive)	> 100 µM (inactive)	> 100 µM (inactive)	> 100 µM (inactive)	> 100 µM (inactive)	> 100 µM (inactive)	> 100 µM (inactive)	> 100 µM (inactive)	> 100 µM (inactive)	> 100 µM (inactive)	> 100 µM (inactive)	> 100 µM (inactive)	> 100 µM (inactive)	> 100 µM (inactive)	> 100 µM (inactive)	> 100 µM (inactive)	> 100 µM (inactive)
O=c1[nH]nc(-c2ccccc2)n1/N=C/c1ccc([N+](=O)[O-])cc1	6.64 µM (inactive)	23.9 µM (inactive)	11.4 µM (inactive)	12.3 µM (inactive)	56.1 µM (inactive)	25 µM (inactive)	> 100 µM (inactive)	> 100 µM (inactive)	> 100 µM (inactive)	> 100 µM (inactive)	19.7 µM (inactive)	3.85 µM (inactive)	> 100 µM (inactive)	8.43 µM (inactive)	13 µM (inactive)	27.2 µM (inactive)	> 100 µM (inactive)	10.4 µM (inactive)	13.8 µM (inactive)	> 53.8 µM (inactive)
COCCOC1=CC(=O)c2c(O)ccc(O)c2C1=O	1.64 µM (inactive)	2 µM (inactive)	1.87 µM (inactive)	2.59 µM (inactive)	0.893 µM (active)	0.285 µM (active)	0.585 µM (active)	1.93 µM (inactive)	0.179 µM (active)	0.167 µM (active)	0.662 µM (active)	1.89 µM (inactive)	1.61 µM (inactive)	2.19 µM (inactive)	1.89 µM (inactive)	1.69 µM (inactive)	0.163 µM (active)	2 µM (inactive)	2.36 µM (inactive)	1.85 µM (inactive)
COc1ccc(-n2c(C)nc3ccc(NC4OCC(OC(C)=O)C(OC(C)=O)C4OC(C)=O)cc3c2=O)cc1 (centres undefined)	> 100 µM (inactive)	–	> 100 µM (inactive)	> 100 µM (inactive)	> 100 µM (inactive)	> 100 µM (inactive)	> 100 µM (inactive)	> 100 µM (inactive)	> 100 µM (inactive)	> 100 µM (inactive)	> 100 µM (inactive)	> 100 µM (inactive)	> 100 µM (inactive)	> 100 µM (inactive)	> 100 µM (inactive)	> 100 µM (inactive)	> 100 µM (inactive)	> 100 µM (inactive)	> 100 µM (inactive)	> 100 µM (inactive)
